Series [1] in a line: Pharmacokinetics of oxazolidinones after single oral dose, plasma LC/MS. The class given is in vivo, BALB/c mice. As to the method: Pharmacokinetics of oxazolidinones. Uninfected female BALB/c mice weighing approximately 20 g received single doses of SZD (50 mg/kg), LZD (100 mg/kg), TZD (10 or 20 mg/kg) or AZD (50 or 200 mg/kg). Three mice per dose per time point were sampled by cardiac puncture at 0.5, 1, 2, 4, 8 and 24 hours post-dose (plus an additional 16 hour time point for AZD). Plasma drug concentrations were quantified by a validated LC/MS method performed at AstraZeneca (for AZD only) (14) or Rutgers New Jersey Medical School (for other oxazolidinones). Standards for the different oxazolidinones were provided by the sponsors. At Rutgers, analytes of interest were extracted by combining 20 μl of mouse plasma with 20 μl of acetonitrole:water (1:1), and 180 μl of methanol:acetonitrile (1:1) containing 10 mg/ml of verapamil (Sigma-Aldrich) as internal standard. The mixture was vortexed and centrifuged, and 100 μL of the supernatant was recovered and combined with 10 μL of water for analysis. LC/MS-MS analysis was performed with an Agilent 1260 LC-system coupled to an AB Sciex 4000 Q-trap Mass Spectrometer (positive mode, electrospray ionization), and an Agilent column SB-C8, 2.1×30 mm, 3.5 μm, with the column temperature fixed at 24° C. Mobile phase A was 0.1% formic acid in 100% H2O and mobile phase B was 0.1% formic acid in 100% acetonitrile. Injection volumes were routinely 2 μl. The Mass Selective Detector was set to MRM (multiple reaction monitoring) mode using positive polarity ionization, monitoring for the ions of interest SZD (m/z 354.12/312.04), SZD-M1(370.13/238.12), LZD(338.00/235.00), and TZD(371.12/343.00) and the internal standard (m/z 455.4/165.2). The lower limit of quantification for all oxazolidinones was […]. PK parameters were determined by non-compartmental analysis using WinNonlin 6.4 (Certara, Princeton, NJ).

Series [2] deals with Mycobacterium tuberculosis H37Rv. The class given is in vivo.
In series [3] the test system is Gram-positive and Gram-negative bacteria. The following applies: cited from earlier work.
For a further series, the system named is cytochrome P450. The following applies: cited from earlier work.
[4] abbreviates: female, BALB/c, mouse, in vivo, single oral dose 50 mg/kg, mean, plasma, read-out: AUC0-24 hr.
The mark [5] stands for this setting: female, BALB/c, mouse, in vivo, single oral dose 50 mg/kg, mean, plasma, read-out: Cmax.
Setting [6] is: female, BALB/c, mouse, in vivo, single oral dose 50 mg/kg, mean, plasma, read-out: Tmax.
Setting [7] is: female, BALB/c, mouse, in vivo, single oral dose 50 mg/kg, mean, plasma, read-out: t1/2 (converted).
The mark [8] stands for this setting: Example 1, lung, 1 month of treatment, D0 count 6.17±0.27, PMD 50 mg/kg, LZD 100 mg/kg, SZD 50 mg/kg.
Where [9] appears, read: M1 metabolite after single oral dose of sutezolid 50 mg/kg, mean, plasma.
Where [10] appears, read: female, BALB/c, mouse, in vivo, po, 100 mg/kg.
Setting [11] is: female, BALB/c, mouse, in vivo, po, 10 mg/kg.
[12] abbreviates: female, BALB/c, mouse, in vivo, po, 20 mg/kg.

Read-outs that look alike come from different tables or passages of the source.

Consider `CC(=O)NC[C@H]1CN(c2ccc(N3CCSCC3)c(F)c2)C(=O)O1` [SZD, sutezolid], for which the AUC(0-t) in series [1] (setting [4]) came to 3360 ng·h/mL. Also, in series [1] (setting [5]), the peak concentration (Cmax) (usually the highest concentration seen after dosing) is 1290 ng/mL. Besides, the Tmax (as a rule, the time from dosing to the highest level) in series [1] (setting [6]) was found to be 30 min. Moreover, the half-life in series [1] (setting [7]) is 168 min. Besides, in series [2] (setting [8]), the “Mean (±SD) log10 CFU count at M1” value turned out to be 3.85 ± 0.37 log10 CFU.
Turning to `CC(=O)NC[C@H]1CN(c2ccc(N3CC[S+]([O-])CC3)c(F)c2)C(=O)O1` [Sutezolid M1], in series [1] (setting [9]), the AUC0-24 hr is 31945 ng·h/mL, the maximum concentration (Cmax) came to 15233 ng/mL and the Tmax is 30 min. Moreover, in series [1] (after oral SZD 50 mg/kg), the “Cmax relative to SZD parent” value is reported as “approximately 10 times” and the “mean AUC0-24 h relative to SZD parent” value is “approximately 10 times”.
With `CC(=O)NC[C@H]1CN(c2ccc(N3CCOCC3)c(F)c2)C(=O)O1` [LZD, (S)—N-[[3-[3-Fluoro-4-(4morpholinyl)phenyl]-2-oxo-5-oxazolidinyl]methyl]-acetamide], in series [1] (setting [10]), the Cmax is 81900 ng/mL and the Tmax was 30 min. The same compound came in with an AUC(0-t) in series [1] (female, BALB/c, mouse, in vivo, po, 100 mg/kg, AUC0-24 h) of 244000 ng·h/mL. Further, the AUC(0-t) in series [1] (female, BALB/c, mouse, in vivo, po, 100 mg/kg, AUC0-24 hr) was determined as 244000 ng·h/mL. Also, the half-life in series [1] (female, BALB/c, mouse, single oral dose 100 mg/kg, mean, plasma, read-out: t1/2 (converted)) was 180 min. Moreover, the “Mean (±SD) log10 CFU count at M1” value in series [2] (in vivo) stood at 4.97 ± 0.26 log10 CFU.
As to `O=C([C@@H](O)CO)N1CC=C(c2c(F)cc(N3C[C@H](COc4ccon4)OC3=O)cc2F)CC1` [AZD], the “predicted AUC0-24 h” value in series [1] (125 mg/kg dose, interpolated between the 50 and 200 mg/kg doses) was 160000 to 190000 ng·h/mL. Moreover, the AUC(0-t) in series [1] (setting [4]) is 74800 ng·h/mL; in series [1] (female, BALB/c, mouse, in vivo, single oral dose 200 mg/kg, mean, plasma, read-out: AUC0-24 hr), 220000 ng·h/mL. Further, the Cmax in series [1] (setting [5]) stood at 20400 ng/mL; in series [1] (female, BALB/c, mouse, in vivo, single oral dose 200 mg/kg, mean, plasma, read-out: Cmax) it was 31400 ng/mL. In addition, the Tmax was found to be 42 min in series [1] (setting [6]) and 42 min in series [1] (female, BALB/c, mouse, in vivo, single oral dose 200 mg/kg, mean, plasma, read-out: Tmax). Moreover, the half-life in series [1] (setting [7]) is 144 min; in series [1] (female, BALB/c, mouse, in vivo, single oral dose 200 mg/kg, mean, plasma, read-out: t1/2 (converted)), 516 min.
For the compound `COc1nc2ccc(Br)cc2cc1[C@@H](c1ccccc1)[C@@](O)(CCN(C)C)c1cccc2ccccc12` [BDQ, (1R, 2S)-1-(6-bromo-2methoxy-3-quinolinyl)-4-(dimethylamino)-2-(1-naphthalenyl)-1-phenyl-2-butanol compound with fumaric acid (1:1)], the “Mean (±SD) log10 CFU count at M1” value in series [2] (setting [8]) is reported as 3.24 ± 0.25 log10 CFU.
For `O=[N+]([O-])c1cn2c(n1)OCC(OCc1ccc(OC(F)(F)F)cc1)C2` (stereo in doubt) [PMD, (6S)-2-nitro-6-{[4-(trifluoromethoxy)benzyl]oxy}-6,7-dihydro-5H-imidazo[2,1-b][1,3]oxazine], in series [3], the “activity against a broad range of Gram-positive and Gram-negative bacteria” value is “no significant activity”. Also, the “Mean (±SD) log10 CFU count at M1” value in series [2] (setting [8]) was found to be 4.57 ± 0.22 log10 CFU. Further, the “cytochrome P450 interactions” value with cytochrome P450 is given as “no significant cytochrome P450 interactions”.
Turning to `Cn1nnc(-c2ccc(-c3ccc(N4C[C@H](CO)OC4=O)cc3F)cn2)n1` [TZD, tedizolid], the AUC(0-t) in series [1] (female, BALB/c, mouse, in vivo, 10 mg/kg, total drug AUC0-24 h) worked out at 40000 ng·h/mL; in series [1] (female, BALB/c, mouse, in vivo, po, 10 mg/kg, AUC0-24 hr), 40400 ng·h/mL; in series [1] (female, BALB/c, mouse, in vivo, po, 20 mg/kg, AUC0-24 hr), 77700 ng·h/mL. The maximum concentration (Cmax) was 6420 ng/mL in series [1] (setting [11]) and 11400 ng/mL in series [1] (setting [12]). The Tmax worked out at 42 min in series [1] (setting [11]) and 30 min in series [1] (setting [12]). Besides, the values for the half-life in series [1] (setting [11]) and in series [1] (setting [12]) were 180 min and 234 min, respectively.

The record behind these values is patent US20230414625A1, “Combination Antibacterial Composition and Short-Course Antibacterial Regimen” (The Global Alliance for TB Drug Development, Inc., priority 2015, published 2023).
